# Patent US6372917B1, “Biphenylsulfonyl-substituted imidazole derivatives, their preparation process, their use as a drug or diagnostic agent and drug containing them” (Aventis Pharma Deutschland GmbH, priority 1998, dated 2002)
# Columns and labels:
# [1] = tested on: Na+-dependent Cl-/HCO3- exchanger (NCBE); test: Inhibition of the Na+-dependent Cl-/HCO3- exchanger (NCBE) in human endothelial cells (pHi recovery, BCECF fluorescence, FLIPR); type: cell-based; settings: inhibitor concentration 10 μM; human endothelial cells (ECV-304); 50 μM HOE 642 present; 35° C., 2 minutes
# Experimental: Inhibition of the Na^+-dependent Cl^−/HCO3^− exchanger (NCBE) in human endothelial cells
# Human endothelial cells (ECV-304) were detached from culture bottles with the aid of trypsin/EDTA buffer (0.05/0.02% in phosphate buffer) and, after centrifugation (100 g, 5 min), taken up in a buffered salt solution (mmol/l: 115 NaCl, 20 NH4Cl, 5 KCl, 1 CaCl2, 1 MgSO4, 20 N-(2-hydroxyethyl)piperazine-N-2-ethanesulfonic acid (HEPES), 5 glucose and 1 g/l of bovine serum albumin; pH 7.4). This cell suspension was incubated at 37° C. for 20 min with 5 μM BCECF-acetoxymethyl ester. […] For subsequent fluorescence measurement in an FLIPR (Fluorescent Imaging Plate Reader) 100 μl of this cell suspension having 20,000 cells in each case were pipetted per well into a 96-well microtiter plate and this microtiter plate was centrifuged (100 g, 5 min). […] After addition of the buffer solutions to the dye-loaded, acidified cells in the measurement plate, the rise in the fluorescence intensity, which corresponded to a rise in the pHi, in each well of the microtiter plate was determined. The kinetics were in this case recorded at 35° C. for a period of 2 minutes. The increase in the fluorescence intensities for different concentrations of the compounds according to the invention was related to the two controls and from this the inhibitory action of the substances was determined.
compound,measurement,setting,value
"CS(=O)(=O)c1cc(-c2ccccc2S(=O)(=O)NC#N)ccc1Cn1c(-c2ccccc2)nc(Cl)c1C=O [Example 2, 4′-(4-Chloro-5-formyl-2-phenylimidazol-1-ylmethyl)-3′-methanesulfonylbiphenyl-2-sulfonylcyanamide]",melting point,,220 °C (dec.)
same,Residual activity of the NCBE at an inhibitor concentration of 10 μM,[1],18.3%
